The subject of assay [1] is CD133^+ cells. Kind of assay: Cleaved-Caspase 3 staining of CD133+ cells. In kind it is cell-based. The settings on record: FIG. 9B. The text has this:
Sorting tumor cells based primarily upon the differential expression of the surface marker(s), such as CD44 or CD133, have accounted for the majority of the highly tumorigenic CSCs described to date. CD133 isolation is based upon the method of Ricci-Vitiani et al., with slight modification. CD133^+ cells were isolated by either fluorescence activated cell sorting (FACS) or magnetic nanoparticle-based separation. Briefly, […] were labeled with CD133/1 (AC133)-PE for FACS-based cell sorting; or with CD133/1 (AC133)-biotin (Miltenyi Biotec, Auburn, Calif.) for magnetic field-based separation using the EasySep® biotin selection kit (Miltenyi Biotec) according to the manufacturer's recommendations. Non-specific labeling was blocked with the supplied FcR blocking reagent and antibody incubations (1:11) were carried out on ice for 15 minutes in PBS with 2% FBS and 1 mM EDTA. Five washes were done for EasySep® isolation, whereas cells were pelleted at 400×g for 5 minutes and resuspended at 2×10^7/mL, before sorting by FACS.
Cells treated with indicated compound for an indicated time were either fixed in 4% formaldehyde or cold methanol for the detection of Annexin V, cleaved caspase 3, or stat3, respectively. Coverslips were air dried and rehydrated in PBS at room temperature for 10 min. […]

In assay [2] the test system is Stat3. Kind of assay: Stat3 DNA binding assay (EMSA) with HeLa nuclear extracts. In kind it is biochemical. To be noted: HeLa nuclear extract, FIG. 7A/7B. As for the experimental part:
Electrophoretic mobility shift assay (EMSA) was performed as described by the manufacturer (Li-Cor Biosciences, Lincoln, Nebr.). Briefly, nuclear extracts were made from HeLa cells using the NucBuster Protein Extraction Kit as described by the manufacturer (EMD Biosciences, San Diego, Calif.). 5 μg of nuclear extract was pre-incubated with the indicated dose of indicated compound for 30 minutes prior to a 15-minute incubation with the IR700-labeled consensus Stat3 oligonucleotide. Samples were then electrophoresed on a polyacrylamide gel and directly scanned using the Odyssey infrared imaging system (Li-Cor Biosciences). For the enzyme-linked immunosorbent assay (ELISA), 5 μg of nuclear extract was preincubated with indicated concentration of indicated compound for 30 minutes prior to the addition of biotinylated oligo (5′-Biotin-[…]-3′, SEQ ID NO. 1). Stat3-DNA complexes were then captured on streptavidin coated 96 well plates (Pierce, Rockford, Ill.). Bound complexes were then incubated with Stat3 polyclonal antibody (Santa Cruz Biotechnology, Santa Cruz, Calif.) followed by anti-rabbit HRP conjugated secondary antibody (GE Healthcare, Pittsburgh, Pa.). Bound antibody was then visualized by addition of TMB substrate (Pierce) and absorbance measured at 450 nm,
Nuclear extracts from HeLa cells, which contain constitutively activated Stat3 as detected by phoshporylation at the tyrosine 705 residue, were used to perform Stat3 EMSAs to monitor Stat3 DNA binding activity. Nuclear extracts were incubated with indicated compound prior to incubation with IR700-labeled Stat3 consensus oligonucleotide. Binding of Stat3 to the oligonucleotide was monitored by gel electrophoresis and detection using a LiCor Odyssey infrared scanner.

Assay [3] concerns CD44^high CSCs. Kind of assay: Sphere assay with CD44high CSCs. In kind it is cell-based. The settings on record: spheres grown 72 hours before challenge, FIGS. 10A and 10B. The method, then:
A reliable method of measuring the self-renewal capacity of cell population if the ability to be cultured as spheres in the absence of serum or attachment. CD44^high FaDu or Hoechst side population cancer stem cells were cultured in ultra low attachment plates in cancer stem cell media (DMEM/F12, B27 Neurobasal supplement, 20 ng/ml EGF, 10 ng/ml FGF, 4 μg/ml insulin, and 0.4% BSA) to allow spheres formation. Typically, sphere formation was evaluated by microscopy after 10-14 days in culture and spheres with >50 cells were scored.
One of the hallmarks cancer stem cells is their ability to self-renew. A reliable method of measuring the self-renewal capacity of cell populations is the ability to be cultured as spheres in the absence of serum or attachment. To compare the ability of compound 401 to other targeted and chemotherapeutic agents, FACS-isolated CD44^high CSCs were grown as spheres for 72 hours before being challenged with a panel of therapeutic agents. […] Tarceva, Sutent, and Gleevec were added at approximately three times their reported therapeutic concentrations.

Assay [4] has as its system Stat3. Kind of assay: Stat3-luciferase (Stat3-Luc) reporter assay, OSM-stimulated HeLa cells. The class given is cell-based. The settings on record: FIG. 6. The method, then: HeLa Cells were co-transfected with Stat3-luciferase (Stat3-Luc) reporter vector (Panomics, Fremont, Calif.) and Renilla luciferase (Promega, Madison, Wis.) using Lipofectamine 2000 as described by the manufacturer (Invitrogen). Following transfection, cells were maintained in medium containing 0.5% FBS for 24 hours. Cells were then treated with the indicated compound for 30 minutes prior to the addition of 25 ng/ml oncostatin M (OSM) (R&D Systems, Minneapolis, Minn.) to the medium. 6 hours following OSM addition, cells were harvested and levels of firefly and renilla luciferase were measured using the Dual-Glo Luciferase Assay System as described by the manufacturer (Promega).
Compounds were tested for their ability to inhibit Stat3 transcription activation activity in cells using a Stat3-luciferase (Stat3-luc) reporter construct. Cells transfected with Stat3-luc were cultured in reduced serum medium prior to addition of indicated compound for 30 minutes. Cells were then stimulated with 25 ng/ml oncostatin M (OSM) for 6 hours followed by detection of Stat3-luc reporter activity. […] AG490, a known inhibitor of the Jak-Stat pathway, was included as a positive control for Stat3 inhibition.

Assay [5] deals with Hoechst side population cells. Kind of assay: Annexin V staining of Hoechst side population cells. In kind it is cell-based. The settings on record: FIG. 9A. As for the experimental part: (§1) Cells treated with or without compound were harvested at 5 hours post treatment for Annexin-V staining. Collected cells were washed with PBS and resuspended in Annexin-V-FITC containing buffer and stained according to manufactures directions (Roche). Annexin-V positive cells were determined by Flow cytometry.
Cells treated with indicated compound for an indicated time were either fixed in 4% formaldehyde or cold methanol for the detection of Annexin V, cleaved caspase 3, or stat3, respectively. Coverslips were air dried and rehydrated in PBS at room temperature for 10 min. Samples were then incubated in blocking buffer (PBS, 5% FBS) for 10 min at room temperature in a humid chamber. Cells were incubated overnight at 4° C. with primary antibodies. After washing, the cells were incubated for 1 hour at room temperature with a 1:500 dilution of FITC conjugated anti-rabbit antibody. Images were captured with a Nikon TE200 microscope equipped with epifluorescence and a SPOT mosaic CCD camerapolyclonal Anti-cleaved caspase 3 antibody (1:100) was obtained from Cell Signaling Technology, Danvers, Mass. Annexin-V-FITC was obtained from Roche, Penzberg, Germany. Polyclonal anti-Stat3 antibody was obtained from Santa Cruz.
The Hoechst side population cells were treated with compound 401 and the mode of cell death was accessed by Annexin V (an early marker for apoptosis) staining.

Assay [6] concerns HT29 colon cancer cells. Kind of assay: Colony formation assay, HT29. In kind it is cell-based. The settings on record: Homo sapiens, HT-29, similar conditions.
The subject of assay [7] is DU145 cells. Kind of assay: Annexin V flow cytometry in DU145 cells. The class given is cell-based. To be noted: 5 hours post-treatment, FIG. 11. As for the experimental part: as §1
Additionally, DU145 cells were first treated with DMSO or the indicated concentrations of compound 401, then stained with Annexin V, and followed by Flow cytometry analysis 5 hours post-treatment.

pIC50: −log10 of the molar value. “Also recorded” adds a separate entry of the source. Where only a bound is given, the exact number is not on record here.

A word on the pIC50: it is −log10 of the IC50, conventionally taken in molar units. Turning to `CC(=O)c1cc2c(o1)C(=O)c1ccccc1C2=O` [Compound 401, 2-acetylnaphtho[2,3-b]furan-4,9-dione], the “cleaved-Caspase 3 staining” value in assay [1] is given as “many of the CD133^+ cells become cleaved-Caspase 3 positive”. The “inhibition of Stat3 DNA binding activity” value in assay [2] is given as “Dose dependent inhibition of Stat3 DNA binding; also recorded: can inhibit Stat3's DNA binding activity”. For the same molecule, the “prevention of sphere proliferation” value in assay [3] is reported as “effective at preventing sphere proliferation”. Further, in assay [4], the “inhibition of OSM-stimulated Stat3 reporter activity” value is “inhibited OSM-stimulated Stat3 reporter activity”. For the same molecule, the “mode of cell death by Annexin V staining” value in assay [5] is “the dying cells are Annexin V positive”. This molecule also showed a pIC50 in assay [6] of more than 6.30. The “Annexin V staining” value in assay [7] was “dose-dependent increase in the Annexin V staining”.

The values above are taken from US20210024482A1, “Novel Group of STAT3 Pathway Inhibitors and Cancer Stem Cell Pathway Inhibitors” (Sumitomo Dainippon Pharma Oncology, Inc., priority 2007, published 2021).
